Reference: ChEMBL document CHEMBL5247607, “Design, synthesis and biological evaluation of a new series of arylidene indanones as small molecules for targeted therapy of non-small cell lung carcinoma and prostate cancer” (Eur J Med Chem, 2022)
Active and inactive are the calls of the source. The rule behind the calls is not given here.

What was measured:
[1] = test system: PANC-1; assay: Induction of mitochondrial membrane potential loss in human PANC-1 cells assessed as polarized cells at IC50 incubated for 24 hrs by JC-1 staining based flow cytometry assay (reference value: 92%); assay type: functional
[2] = test system: PANC-1; assay: Induction of apoptosis in human PANC-1 cells assessed as activation of caspase-3 by measuring caspase-3 positive cells at IC50 incubated for 24 hrs by flow cytometry analysis (reference value: 1.8%); assay type: functional
[3] = Cytotoxicity against human hTERT-HPNE cells assessed as inhibition of cell growth incubated for 24 hrs by MTT assay; assay type: toxicity, cell-based
[4] = biological target: Cathepsin D (Homo sapiens) (UniProt P07339); assay: Inhibition of cathepsin D (unknown origin) at 100 uM relative to control
[5] = Cytotoxicity against human CCD 19Lu cells assessed as inhibition of cell growth incubated for 24 hrs by MTT assay; assay type: toxicity, cell-based
[6] = test system: PANC-1; assay: Induction of morphological changes in human PANC-1 cells assessed as chromatin condensation at 6.51 uM incubated for 24 hrs by acridine orange/ethidium bromide staining based fluorescence microscopic analysis; assay type: functional, cell-based
[7] = test system: PANC-1; assay: Induction of apoptosis in human PANC-1 cells assessed as activation of caspase-3 by measuring caspase-3 negative cells at IC50 incubated for 24 hrs by flow cytometry analysis (reference value: 98.5 %); assay type: functional
[8] = Selectivity index, ratio of IC50 for cytotoxicity against human CCD 19Lu cells to IC50 for cytotoxicity against human A549 cells; assay type: toxicity, cell-based; conditions: CCD 19Lu cells versus A549 cells, read-out: Ratio IC50
[9] = test system: PANC-1; assay: Induction of apoptosis in human PANC-1 cells assessed as early apoptotic cells at IC50 incubated for 24 hrs by annexin V-FITC/PI staining based flow cytometry analysis (reference value: 0%); assay type: functional
[10] = test system: A549; assay: Cytotoxicity against human A549 cells assessed as inhibition of cell growth incubated for 24 hrs by MTT assay; assay type: functional, cell-based; conditions: A549, 24 h
[11] = test system: PANC-1; assay: Induction of apoptosis in human PANC-1 cells assessed as total apoptotic cells at IC50 incubated for 24 hrs by annexin V-FITC/PI staining based flow cytometry analysis relative to control; assay type: functional
[12] = biological target: Procathepsin L (Homo sapiens) (UniProt P07711); assay: Inhibition of cathepsin L (unknown origin) at 100 uM
[13] = test system: PANC-1; assay: Induction of apoptosis in human PANC-1 cells assessed as late apoptotic cells at IC50 incubated for 24 hrs by annexin V-FITC/PI staining based flow cytometry analysis (reference value: 0.2%); assay type: functional
[14] = test system: PANC-1; assay: Induction of morphological changes in human PANC-1 cells assessed as cell shrinkage at 6.51 uM incubated for 24 hrs by acridine orange/ethidium bromide staining based fluorescence microscopic analysis; assay type: functional
[15] = test system: PANC-1; assay: Induction of morphological changes in human PANC-1 cells assessed as formation of apoptotic bodies at 6.51 uM incubated for 24 hrs by acridine orange/ethidium bromide staining based fluorescence microscopic analysis; assay type: functional, cell-based
[16] = test system: PANC-1; assay: Induction of mitochondrial membrane potential loss in human PANC-1 cells assessed as depolarized cells at IC50 incubated for 24 hrs by JC-1 staining based flow cytometry assay (reference value: 5%); assay type: functional
[17] = test system: PANC-1; assay: Cytotoxicity against human PANC-1 cells assessed as inhibition of cell growth incubated for 24 hrs by MTT assay; assay type: functional, cell-based; conditions: PANC-1, 24 h
[18] = test system: PANC-1; assay: Induction of apoptosis in human PANC-1 cells assessed as total cell viability at IC50 incubated for 24 hrs by annexin V-FITC/PI staining based flow cytometry analysis (reference value: 84.4%); assay type: functional
[19] = Selectivity index, ratio of IC50 for cytotoxicity against human hTERT-HPNE cells to IC50 for cytotoxicity against human PANC-1 cells; assay type: toxicity, cell-based; conditions: hTERT-HPNE cells versus PANC-1 cells, read-out: Ratio IC50
[20] = test system: PANC-1; assay: Inhibition of DNA synthesis in human PANC-1 cells at 6.51 uM incubated for 24 hrs by BrdU incorporation assay relative to control; assay type: functional
[21] = test system: PANC-1; assay: Induction of morphological changes in human PANC-1 cells assessed as cell shrinkage at 10.04 uM incubated for 24 hrs by acridine orange/ethidium bromide staining based fluorescence microscopic analysis; assay type: functional
[22] = test system: A549; assay: Induction of apoptosis in human A549 cells assessed as total cell viability at IC50 incubated for 24 hrs by annexin V-FITC/PI staining based flow cytometry analysis (reference value: 85.6 %); assay type: functional
[23] = test system: PANC-1; assay: Induction of morphological changes in human PANC-1 cells assessed as chromatin condensation at 10.04 uM incubated for 24 hrs by acridine orange/ethidium bromide staining based fluorescence microscopic analysis; assay type: functional, cell-based
[24] = test system: A549; assay: Induction of mitochondrial membrane potential loss in human A549 cells assessed as polarized cells at IC50 incubated for 24 hrs by JC-1 staining based flow cytometry assay (reference value: 90.6%); assay type: functional
[25] = test system: A549; assay: Induction of apoptosis in human A549 cells assessed as late apoptotic cells at IC50 incubated for 24 hrs by annexin V-FITC/PI staining based flow cytometry analysis (reference value: 6.5 %); assay type: functional
[26] = test system: A549; assay: Inhibition of DNA synthesis in human A549 cells at IC50 incubated for 24 hrs by BrdU incorporation assay relative to control; assay type: functional
[27] = test system: A549; assay: Induction of apoptosis in human A549 cells assessed as activation of caspase-3 by measuring caspase-3 positive cells at IC50 incubated for 24 hrs by flow cytometry analysis (reference value: 8.4%); assay type: functional
[28] = test system: A549; assay: Induction of morphological changes in human A549 cells assessed as cell shrinkage at 15.33 uM incubated for 24 hrs by acridine orange/ethidium bromide staining based fluorescence microscopic analysis; assay type: functional
[29] = test system: A549; assay: Induction of apoptosis in human A549 cells assessed as early apoptotic cells at IC50 incubated for 24 hrs by annexin V-FITC/PI staining based flow cytometry analysis (reference value: 5.6%); assay type: functional
[30] = test system: A549; assay: Inhibition of DNA synthesis in human A549 cells at IC50/4 incubated for 24 hrs by BrdU incorporation assay relative to control; assay type: functional
[31] = test system: PANC-1; assay: Inhibition of DNA synthesis in human PANC-1 cells at 10.04 uM incubated for 24 hrs by BrdU incorporation assay relative to control; assay type: functional
[32] = biological target: Cathepsin D (Homo sapiens) (UniProt P07339); assay: Inhibition of cathepsin D (unknown origin) at 100 uM
[33] = test system: PANC-1; assay: Induction of morphological changes in human PANC-1 cells assessed as formation of apoptotic bodies at 10.04 uM incubated for 24 hrs by acridine orange/ethidium bromide staining based fluorescence microscopic analysis; assay type: functional, cell-based
[34] = test system: A549; assay: Induction of mitochondrial membrane potential loss in human A549 cells assessed as depolarized cells at IC50 incubated for 24 hrs by JC-1 staining based flow cytometry assay (reference value: 6.9%); assay type: functional
[35] = test system: A549; assay: Induction of morphological changes in human A549 cells assessed as chromatin condensation at 15.33 uM incubated for 24 hrs by acridine orange/ethidium bromide staining based fluorescence microscopic analysis; assay type: functional, cell-based
[36] = test system: A549; assay: Induction of morphological changes in human A549 cells assessed as formation of apoptotic bodies at 15.33 uM incubated for 24 hrs by acridine orange/ethidium bromide staining based fluorescence microscopic analysis; assay type: functional, cell-based
[37] = test system: A549; assay: Inhibition of DNA synthesis in human A549 cells at IC50/2 incubated for 24 hrs by BrdU incorporation assay relative to control; assay type: functional
[38] = test system: A549; assay: Induction of apoptosis in human A549 cells assessed as activation of caspase-3 by measuring caspase-3 negative cells at IC50 incubated for 24 hrs by flow cytometry analysis (reference value: 91.1%); assay type: functional
[39] = test system: A549; assay: Induction of morphological changes in human A549 cells assessed as formation of apoptotic bodies at 5.99 uM incubated for 24 hrs by acridine orange/ethidium bromide staining based fluorescence microscopic analysis; assay type: functional, cell-based
[40] = test system: A549; assay: Induction of morphological changes in human A549 cells assessed as chromatin condensation at 5.99 uM incubated for 24 hrs by acridine orange/ethidium bromide staining based fluorescence microscopic analysis; assay type: functional, cell-based
[41] = test system: A549; assay: Induction of apoptosis in human A549 cells assessed as total apoptotic cells at IC50 incubated for 24 hrs by annexin V-FITC/PI staining based flow cytometry analysis relative to control; assay type: functional
[42] = test system: A549; assay: Inhibition of DNA synthesis in human A549 cells at 5.99 uM incubated for 24 hrs by BrdU incorporation assay relative to control; assay type: functional
[43] = test system: A549; assay: Induction of apoptosis in human A549 cells assessed as increase in intracellular calcium level at 5.99 uM by Fluo-4-AM staining based flow cytometry analysis; assay type: functional, cell-based
[44] = test system: PANC-1; assay: Induction of morphological changes in human PANC-1 cells assessed as chromatin condensation at 5.99 uM incubated for 24 hrs by acridine orange/ethidium bromide staining based fluorescence microscopic analysis; assay type: functional, cell-based
[45] = test system: A549; assay: Induction of morphological changes in human A549 cells assessed as cell shrinkage at 5.99 uM incubated for 24 hrs by acridine orange/ethidium bromide staining based fluorescence microscopic analysis; assay type: functional
[46] = test system: PANC-1; assay: Inhibition of DNA synthesis in human PANC-1 cells at 5.99 uM incubated for 24 hrs by BrdU incorporation assay relative to control; assay type: functional
[47] = test system: PANC-1; assay: Induction of morphological changes in human PANC-1 cells assessed as cell shrinkage at 5.99 uM incubated for 24 hrs by acridine orange/ethidium bromide staining based fluorescence microscopic analysis; assay type: functional
[48] = test system: PANC-1; assay: Induction of morphological changes in human PANC-1 cells assessed as formation of apoptotic bodies at 5.99 uM incubated for 24 hrs by acridine orange/ethidium bromide staining based fluorescence microscopic analysis; assay type: functional, cell-based

Cathepsin D (Homo sapiens), sequence (P07339 65-162 limits assumed): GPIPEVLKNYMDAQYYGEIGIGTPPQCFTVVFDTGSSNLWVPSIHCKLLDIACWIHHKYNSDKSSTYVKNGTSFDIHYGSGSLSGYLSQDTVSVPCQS
Cathepsin D (Homo sapiens), sequence (P07339 169-412 limits assumed): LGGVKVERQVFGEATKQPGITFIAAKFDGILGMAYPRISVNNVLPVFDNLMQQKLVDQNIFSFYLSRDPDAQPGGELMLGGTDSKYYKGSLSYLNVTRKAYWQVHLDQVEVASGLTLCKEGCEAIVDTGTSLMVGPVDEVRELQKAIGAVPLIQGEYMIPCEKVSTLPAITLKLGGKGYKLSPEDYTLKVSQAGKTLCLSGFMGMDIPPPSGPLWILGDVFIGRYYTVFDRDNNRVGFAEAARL
Procathepsin L (Homo sapiens), sequence (P07711 114-333 limits assumed): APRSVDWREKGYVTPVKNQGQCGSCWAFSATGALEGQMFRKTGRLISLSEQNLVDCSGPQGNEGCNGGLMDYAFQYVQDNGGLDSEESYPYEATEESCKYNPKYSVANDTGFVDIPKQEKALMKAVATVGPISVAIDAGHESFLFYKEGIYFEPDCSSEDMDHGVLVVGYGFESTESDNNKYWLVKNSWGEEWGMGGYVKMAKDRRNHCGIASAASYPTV

Row | SMILES | Activity [1] [%] | Activity [2] [%] | IC50 at 24 h [3] [µM] | inhibition [4] [%] | IC50 at 24 h [5] [µM] | Activity [7] [%] | selectivity ratio [8] | Activity [9] [%] | IC50 [10] [µM] | inhibition [12] | Activity [13] [%] | Activity [16] [%] | IC50 [17] [µM] | Activity [18] [%] | selectivity ratio [19] | Activity [22] [%] | Activity [24] [%] | Activity [25] [%] | Activity [27] [%] | Activity [29] [%] | also measured
1 | CN(C)c1ccc(/C=C2\Cc3cc4c(cc3C2=O)OCO4)cc1 | 83.9 | 4.7 | > 1630 | 27.5 | > 1630 | 96.5 | > 24.6 | 24.7 | 66.2 | inactive | 15.9 | 11 | < 12.7 | 50.4 | > 128 |  |  |  |  |  | Activity [6]: Active; Activity [11]: 40.6%; Activity [14]: Active; Activity [15]: Active; inhibition at 6.51 µM [20]: 16.9%
2 | O=C1/C(=C/c2ccc(OCCN3CCOCC3)cc2)Cc2cc3c(cc21)OCO3 | 37.8 | 7.3 | > 1270 |  | 160 | 93.6 | 10.4 | 0.1 | 15.3 | inactive | 0.5 | 61.2 | 10 | 9.5 | > 127 | 82.4 | 62.8 | 5.6 | 6.9 | 10.4 | Activity [21]: Active; Activity [23]: Active; inhibition (INH) [26]: 19.99%; Activity [28]: Active; inhibition (INH) [30]: 4.83%; inhibition at 10.04 µM [31]: 18.4%; inhibition [32]: inactive; Activity [33]: Active; Activity [34]: 35%; Activity [35]: Active; Activity [36]: Active; inhibition (INH) [37]: 9.78%; Activity [38]: 93.2%
3 | O=C1/C(=C/c2ccc(N3CCCC3)cc2)Cc2cc3c(cc21)OCO3 | 82 | 11.3 | > 1500 | 52.7 | 61.5 | 89.6 | > 5.25 | 0.6 | < 11.7 |  | 3.4 | 16.7 | < 11.7 | 76.3 | > 128 | 12.5 | 76.4 | 20 | 7.4 | 65.4 | Activity [39]: Active; Activity [40]: Active; Activity [41]: 85.4%; inhibition at 5.99 µM [42]: 4.41%; Activity [43]: Active; Activity [44]: Active; Activity [45]: Active; inhibition at 5.99 µM [46]: 31%; Activity [47]: Active; Activity [34]: 65%; Activity [48]: Active; Activity [38]: 92.5%
